Converted amounts (≈) assume the structure as drawn. Peptide text beside a SMILES is read from it.
Legend:
[1] = Solubility in organic solvents (purification work); assay type: physicochemical
Method: However, dissolution of the crude peptide in HFIP at a concentration of about 80 mg mL^−1, followed by twofold dilution with HFA.3H2O, furnished a solution that was suitable for use in RP-HPLC.
The next attempt to repurify fraction a of the RP-HPLC purified material using gravity-driven GPC on Sephadex LH-20. These efforts were complicated by the lack of a suitable pure solvent that would satisfy the following criteria: (1) the solvent must be able to dissolve the partially purified peptide, and (2) the solvent must be sufficiently polar to prevent irreversible adsorption of the peptide to the LH-20 stationary phase. One choice was CHCl3, in which the peptide is soluble to about. 20 mM; CHCl3, however, is a nonpolar solvent. Moreover, CHCl3 is denser than LH-20 and therefore inconvenient for GPC using gravity-driven flow. However, the solvent mixture CHCl3/MeOH (65:35) satisfies both of the criteria stated above; in addition, this mixture is less dense than LH-20. A single pass of fraction a through a 2.5×55 cm column of LH-20 in CHCl3/MeOH gave material that was ≧95% pure as estimated by 1D ^1H NMR (FIG. 9c). Furthermore, even fraction b of the RP-HPLC-purified material, which contained about 30% contaminant (FIG. 9b), could be purified in this manner. […]

[2] = Circular dichroism (CD) thermal denaturation study; assay type: physicochemical
Description: (§1) The water solubility of these peptides/peptidometrics is defined by the correct choice of sidechain functionalities.

[3] = physchem; conditions: aqueous medium
Description: as §1

| Compound | solubility ([1]; CHCl3, partially purified peptide) | solubility in solvents typically used for RP-HPLC ([1]; crude peptide, MeOH, EtOH, i-PrOH, and CH3CN) | change of beta-hairpin structure (CD) with temperature ([2]; aqueous state, 100 mM phosphate buffered saline buffer, about 5° C. to about 95° C.) | temperature up to which helical structure resists thermal denaturation (CD) ([2]; in methanol and trifluoroethanol) | solubility [3] |
| --- | --- | --- | --- | --- | --- |
| CC(C)[C@@H]1NC(=O)CNC(=O)[C@H]2CCCN2C(=O)[C@H](C(C)C)NC(=O)[C@@H](C(C)C)NC(=O)[C@H](C(C)C)NC(=O)[C@@H](C(C)C)NC(=O)[C@H](C(C)C)NC(=O)[C@@H](C(C)C)NC(=O)[C@H](C(C)C)NC(=O)[C@@H](C(C)C)NC(=O)[C@H](C(C)C)NC(=O)CNC(=O)[C@H]2CCCN2C(=O)[C@H](C(C)C)NC(=O)[C@@H](C(C)C)NC(=O)[C@H](C(C)C)NC(=O)[C@@H](C(C)C)NC(=O)[C@H](C(C)C)NC(=O)[C@@H](C(C)C)NC(=O)[C@H](C(C)C)NC(=O)[C@@H](C(C)C)NC1=O [Peptide 3, cyclo{[(L-Val-D-Val)4-(L-Val-D-Pro-Gly)]2-}] (HELM PEPTIDE1{V.[dP].G.V.[dV].V.[dV].V.[dV].V.[dV].V.[dP].G.V.[dV].V.[dV].V.[dV].V.[dV]}$PEPTIDE1,PEPTIDE1,1:R1-22:R2$$$V2.0) | ~20 mM (≈ 41.9 mg/mL) | insoluble | – | – | – |
| CC(C)C[C@H]1NC(=O)CNC(=O)[C@@H]2CCCN2C(=O)[C@@H](C)NC(=O)[C@H]([C@@H](C)O)NC(=O)[C@@H](CC(C)C)NC(=O)[C@H]([C@@H](C)O)NC(=O)[C@@H](C(C)C)NC(=O)[C@H](CCCCN)NC(=O)[C@@H](CC(C)C)NC(=O)[C@H](CCC(=O)O)NC(=O)[C@@H](C)NC(=O)CNC(=O)[C@@H]2CCCN2C(=O)[C@@H](C(C)C)NC(=O)[C@H]([C@@H](C)O)NC(=O)[C@@H](C)NC(=O)[C@H]([C@@H](C)O)NC(=O)[C@@H](CC(C)C)NC(=O)[C@H](CCCNC(=N)N)NC(=O)[C@@H](C(C)C)NC(=O)[C@H](CCC(=O)O)NC1=O [Peptide 1] (HELM PEPTIDE1{[dL].E.[dV].R.[dL].T.[dA].T.[dV].P.G.[dA].E.[dL].K.[dV].T.[dL].T.[dA].P.G}$PEPTIDE1,PEPTIDE1,1:R1-22:R2$$$V2.0) | – | – | does not change | up to 85 °C | > 10 mM |
